The molecules below were run on Phakopsora pachyrhizi (assay: Protective control of soy bean rust on soy beans (glass house trial)). Conditions: 16 ppm active compound, sprayed 2 days before inoculation, soy bean seedlings; untreated plants 90%.
Assay type: in vivo
Method: The spray solutions were prepared in several steps: The stock solution were prepared: a mixture of acetone and/or dimethylsulfoxide and the wetting agent/emulsifier Wettol, which is based on ethoxylated alkylphenoles, in a relation (volume) solvent-emulsifier of 99 to 1 was added to 25 mg of the compound to give a total of 5 ml. Water was then added to total volume of 100 ml. This stock solution was diluted with the described solvent-emulsifier-water mixture to the given concentration.
II.2) Protective control of soy bean rust on soy beans caused by Phakopsora pachyrhizi Leaves of pot-grown soy bean seedlings were sprayed to run-off with an aqueous suspension, containing the concentration of active ingredient or their mixture as described below. The plants were allowed to air-dry. The trial plants were cultivated for 2 day in a greenhouse chamber at 23 to 27° C. and a relative humidity between 60 and 80%. Then the plants were inoculated with spores of Phakopsora pachyrhizi. To ensure the success the artificial inoculation, the plants were transferred to a humid chamber with a relative humidity of about 95% and 20 to 24° C. for 24 h. The trial plants were cultivated for fourteen days in a greenhouse chamber at 23 to 27° C. and a relative humidity between 60 and 80%. The extent of fungal attack on the leaves was visually assessed as % diseased leaf area.

Q: For `CCN(Cc1ccc(-c2noc(C(F)(F)F)n2)cc1)C(=O)C(C)C` [Ex-24], which diseased leaf area is on record?
A: 0%

Q: How did the diseased leaf area turn out when `CCCC(=O)N(CC)Cc1ccc(-c2noc(C(F)(F)F)n2)cc1` [Ex-25] was run?
A: 0%

Q: How did the diseased leaf area turn out when `CCN(Cc1ccc(-c2noc(C(F)(F)F)n2)cc1)C(=O)C(C)(C)C` [Ex-27] was run?
A: 0%

Q: For `CCC(=O)N(CC)Cc1ccc(-c2noc(C(F)(F)F)n2)cc1` [Ex-26], which diseased leaf area is on record?
A: 0%

Same assay, conditions: 32 ppm active compound, sprayed 2 days before inoculation, soy bean seedlings; untreated plants 90%

Q: How did the diseased leaf area turn out when `CC(C)CC1CCN(Cc2ccc(-c3noc(C(F)(F)F)n3)cc2)C1=O` (stereo not shown) [Ex-29] was run?
A: 0%

Q: `CC(C)N(Cc1ccc(-c2noc(C(F)(F)F)n2)cc1)C(=O)C(C)(C)C` [Ex-10] was tested. Which diseased leaf area did it give?
A: 0%

Q: How did the diseased leaf area turn out when `CCC(=O)N(C)Cc1ccc(-c2noc(C(F)(F)F)n2)cc1` [Ex-7] was run?
A: 0%

Q: Which diseased leaf area does the source give for `CCCC(=O)N(C)Cc1ccc(-c2noc(C(F)(F)F)n2)cc1` [Ex-12] here?
A: 0%

Q: For `CCCC(=O)N(C)C(C)c1ccc(-c2noc(C(F)(F)F)n2)cc1` (stereo not shown) [Ex-19], which diseased leaf area is on record?
A: 0%

Q: With `CC(C)C(=O)N(C)C(C)c1ccc(-c2noc(C(F)(F)F)n2)cc1` (stereo not shown) [Ex-21] as the molecule, how does the diseased leaf area read?
A: 0%

Q: How did the diseased leaf area turn out when `CCC(CC)C(=O)N(C)Cc1ccc(-c2noc(C(F)(F)F)n2)cc1` [Ex-11] was run?
A: 0%

Q: `CCC(C)C(=O)N(C)Cc1ccc(-c2noc(C(F)(F)F)n2)cc1` (stereo not shown) [Ex-14] was tested. Which diseased leaf area did it give?
A: 0%

Q: With `CC1(C)CC(=O)N(Cc2ccc(-c3noc(C(F)(F)F)n3)cc2)C1` [Ex-31] as the molecule, how does the diseased leaf area read?
A: 0%

Q: For `CCC(CC)C(=O)N(C)C(C)c1ccc(-c2noc(C(F)(F)F)n2)cc1` (stereo not shown) [Ex-20], which diseased leaf area is on record?
A: 0%

Q: For `CNC(c1ccc(-c2noc(C(F)(F)F)n2)cc1)C(F)(F)F` (stereo not shown) [Ex-1], which diseased leaf area is on record?
A: 0%

Q: For `CC(=O)NCc1ccc(-c2noc(C(F)(F)F)n2)cc1` [Ex-15], which diseased leaf area is on record?
A: 0%

Q: Which diseased leaf area does the source give for `CN(Cc1ccc(-c2noc(C(F)(F)F)n2)cc1)C(=O)C(C)(C)C` [Ex-8] here?
A: 0%

Q: For `CC1(C)CCC(=O)N(Cc2ccc(-c3noc(C(F)(F)F)n3)cc2)C1` [Ex-33], which diseased leaf area is on record?
A: 0%

Q: How did the diseased leaf area turn out when `C=CCN(Cc1ccc(-c2noc(C(F)(F)F)n2)cc1)C(C)=O` [Ex-4] was run?
A: 0%

Q: For `CC(=O)NC(c1ccc(-c2noc(C(F)(F)F)n2)cc1)C(F)(F)F` (stereo not shown) [Ex-23], which diseased leaf area is on record?
A: 0%

Q: `CCC(=O)N(Cc1ccc(-c2noc(C(F)(F)F)n2)cc1)C(C)C` [Ex-9] was tested. Which diseased leaf area did it give?
A: 0%

Q: With `O=C1CCCN1Cc1ccc(-c2noc(C(F)(F)F)n2)cc1` [Ex-30, 1-[[4-[5-(trifluoromethyl)-1,2,4-oxadiazol-3-yl]phenyl]methyl] pyrrolidin-2-one] as the molecule, how does the diseased leaf area read?
A: 0%

Q: For `CCC(C)C(=O)N(CC)Cc1ccc(-c2noc(C(F)(F)F)n2)cc1` (stereo not shown) [Ex-28], which diseased leaf area is on record?
A: 0%

Q: With `CCC(=O)N(C)C(C)c1ccc(-c2noc(C(F)(F)F)n2)cc1` (stereo not shown) [Ex-18] as the molecule, how does the diseased leaf area read?
A: 0%

Q: For `CC1CCN(Cc2ccc(-c3noc(C(F)(F)F)n3)cc2)C1=O` (stereo not shown) [Ex-32], which diseased leaf area is on record?
A: 0%

Q: Which diseased leaf area does the source give for `C=CCN(Cc1ccc(-c2noc(C(F)(F)F)n2)cc1)C(=O)C(C)(C)C` [Ex-6] here?
A: 0%

Q: For `CC(=O)N(C)C(C)c1ccc(-c2noc(C(F)(F)F)n2)cc1` (stereo not shown) [Ex-16, N-methyl-N-[1-[4-[5-(trifluoromethyl)-1,2,4-oxadiazol-3-yl]phenyl]ethyl]acetamide], which diseased leaf area is on record?
A: 0%

Q: For `CC(C)C(=O)N(C)Cc1ccc(-c2noc(C(F)(F)F)n2)cc1` [Ex-13, N,2-dimethyl-N[[4-[5-(trifluoromethyl)-1,2,4-oxadiazol-3-yl]phenyl]methyl]propanamide], which diseased leaf area is on record?
A: 0%

Q: For `CCC(C)C(=O)N(C)C(C)c1ccc(-c2noc(C(F)(F)F)n2)cc1` (stereo not shown) [Ex-22], which diseased leaf area is on record?
A: 0%

Q: For `CC(c1ccc(-c2noc(C(F)(F)F)n2)cc1)N(C)C(=O)C(C)(C)C` (stereo not shown) [Ex-17], which diseased leaf area is on record?
A: 0%

Q: `C=CCN(Cc1ccc(-c2noc(C(F)(F)F)n2)cc1)C(=O)CC` [Ex-5] was tested. Which diseased leaf area did it give?
A: 0%

Reference: patent publication US10674727B2, “Substituted oxadiazoles for combating phytopathogenic fungi” (priority 2015, dated 2020)
